Test system: skeletal muscle
Test: AICAriboside infusion: nucleotide, nucleoside and base content of skeletal (gastrocnemius) muscle biopsies
Format: in vivo, mongrel dogs
Parameters: AMP / ADP / ATP / TAN / IMP / Hyp (hypoxanthine): unit not given beside the values
Conditions: for TAN: total adenine nucleotide
[1] = 2 min postinfusion, P < 0.05 vs control
[2] = 30 min of AICAriboside infusion
[3] = 30 min of AICAriboside infusion, P < 0.05 vs control

NC(=O)c1ncn([C@@H]2O[C@H](CO)[C@@H](O)[C@H]2O)c1N [AICAriboside, 5-amino-4-imidazolecarboxamide riboside]
AMP (2 min postinfusion): 0.016 ± 0.002
Hyp (hypoxanthine) (2 min postinfusion): 0.022 ± 0.009
Ino (inosine) (2 min postinfusion): 0.024 ± 0.008
ADP [1]: 0.65 ± 0.06
ATP [1]: 4.68 ± 0.45
IMP [1]: 0.046 ± 0.012
ADP (22 min postinfusion): 0.59 ± 0.03
AMP (22 min postinfusion): 0.014 ± 0.003
ATP (22 min postinfusion): 4.34 ± 0.21
Hyp (hypoxanthine) (22 min postinfusion): 0.021 ± 0.008
Ino (inosine) (22 min postinfusion): 0.024 ± 0.011
IMP (22 min postinfusion, P < 0.05 vs control): 0.045 ± 0.016
ADP [2]: 0.53 ± 0.04
AMP [2]: 0.016 ± 0.009
ATP [2]: 3.92 ± 0.23
Hyp (hypoxanthine) [3]: 0.024 ± 0.007
IMP [3]: 0.050 ± 0.012
Ino (inosine) [3]: 0.035 ± 0.009
ADP (60 min postinfusion): 0.56 ± 0.05
AMP (60 min postinfusion): 0.018 ± 0.007
ATP (60 min postinfusion): 3.60 ± 0.41
Hyp (hypoxanthine) (60 min postinfusion): 0.041 ± 0.017
Ino (inosine) (60 min postinfusion): 0.055 ± 0.031
IMP (60 min postinfusion, P < 0.05 vs control): 0.043 ± 0.015
increase in IMP content (AICAriboside infusion): 6-7 fold
guanine nucleotide content (not statistically significant): tended to increase
content of inosine and hypoxanthine (throughout infusion and up to 60 min thereafter): consistently elevated
content of NAD^+ (throughout infusion, did not vary): 0.32 ± 0.04 µmol/g
TAN [1]: 5.34 ± 0.51
TAN (22 min postinfusion): 4.94 ± 0.23
TAN [2]: 4.47 ± 0.27
TAN (60 min postinfusion): 4.18 ± 0.44
